# Entries after “also recorded” stand apart in the source; their conditions may differ. Where a name gives a salt, the structure may show the parent alone.
# How the values were obtained:
# PPC-1 cells = assay: Apoptosis of PPC-1 cells transfected with CrmA or Bcl-XL, treated with CH-11 and compound; type: cell-based, human; settings: for protection by Bcl-XL against apoptosis: PPC-1 cells transfected with Bcl-XL; for protection by CrmA against apoptosis induced by CH-11 plus compound: PPC-1 cells transfected with CrmA
# Method: FIG. 6. Characterization of the mechanism of FAS-sensitizing compounds. (A) PPC-1 cells (1×10^5) were seeded in 24 well plates. The next day, cells were treated with CH-11 antibody (100 ng/mL) and 30 μM 6094911, 5809354, or 5569100 with (square) or without (diamond) caspase inhibitor z-VAD-fmk (100 μM). Apoptosis was measured 24 hours later by Annexin V staining, expressing data as percentage of Annexin V-negative (“viable”) cells (mean+SD) (n=3). (B) PPC-1 cells (2×10^5) were seeded in 6 well plates and co-transfected with plasmids encoding Bcl-XL, Crm A, or empty vector along with a green fluorescent protein (GFP) encoding plasmid to identify successfully transfected cells. After 48 hours, cells were treated with CH-11 antibody (100 ng/mL) and 6094911 (30 μM), 5809354 (30 μM), or 5569100 (15 μM). As a positive control, transfected cells were treated with staurosporine (0.5 μM) (STS). Apoptotic cells were identified by morphological assessment of the GFP-positive cells, and data were expressed as the percentage of nonapoptotic (“viable”) cells (mean+SD) (n=3).
# Cell transfections. PPC-1 cells (2×10^5) were seeded in 35 mm diameter plates in RPMI with 10% FCS. The next day the cells were co-transfected using Lipofectamine Plus (Invitrogen, Carlsbad, Calif.) with 0.5 μg GFP-encoding plasmid pEGFP (Invitrogen) in combination with 1.5 μg of plasmids encoding Bcl-XL, the viral caspase-8 inhibitor Crm A, or empty vector. At 2 days post-transfection, cells were incubated with various concentrations of CH-11 antibody and the test compounds for 24 hours, then the percentage apoptosis was scored by UV-microscopic analysis of the GFP-positive cells, counting a minimum of 200 cells. Cells that had rounded up and were floating in the medium were counted as non-viable, while cells that remained adherent to the plate with normal morphological features were counted as viable.
# To further address the specificity of the compounds for the extrinsic pathway, the effects of selective apoptosis inhibitory genes were examined. For these experiments, PPC-1 cells were transfected with plasmids encoding CrmA, a viral protein that blocks the extrinsic pathway by inhibiting caspase-8 (Zhou et al., 1997) or encoding Bcl-xL, a mitochondria-targeting protein that blocks the intrinsic pathway by inhibiting release of cytochrome c (Boise et al., 1993; Kharbanda et al., 1997). After transfection, cells were treated with CH-11 antibody and compounds 6094911, 5809354, or […] scoring the percentage of apoptotic cells among the successfully transfected cells as determined by co-transfection of a GFP-marker plasmid.
# FLIP = FLIP protein levels by SDS-PAGE/immunoblotting; type: cell-based, human
# Method: FIG. 7. Effect of FAS-sensitizing compounds on levels of FLIP protein and DISC activation. (A) PPC-1 cells (2×10^5) were seeded into 35 mm plates and treated the next day with various FAS-sensitizing compounds (30 μM), with (+) or without (−) CH-11 antibody (100 ng/mL). As a positive control, cells were treated with CDDO (5 μM). Cell lysates were prepared 24 hours later, normalized for total protein content, and analyzed by SDS-PAGE/immunoblotting using antibodies specific for FLIP or a-tubulin. (B) PPC-1, OVCAR-3, T47D, MDA-MB-468 and DU 145 cells (2×10^5) were seeded into 35 mm plates and treated the next day with 5809354 (40 μM). Cell lysates were prepared 24 hours after treatment, normalized for total protein and analyzed by SDS-PAGE/immunoblotting using antibodies specific for FLIP or β-actin. (C) PPC-1, OVCAR-3, T47D, and DU 145 cells (2×10^5) were seeded into 35 mm plates and treated the next day with 5809354 (40 μM) (black bars) or buffer control (white bars). mRNA was extracted 24 hours after treatment. Levels of the long isoform of FLIP and GAPDH were detected by quantitative RT-PCR. Levels of FLIP were normalized for GAPDH expression and expressed as a mean fold change+SD over buffer treated cells. (D) PPC-1 cells (2×10^5) were seeded into 35 mm plates and treated the next day with various FAS-sensitizing compounds (30 μM) with (+) or without (−) CH-11 (100 ng/mL). Cell lysates were prepared 24 hours after treatment, normalized for total protein, and analyzed by SDS-PAGE/immunoblotting using antibodies specific for caspase-8 and β-actin.
# FIG. 13. Small molecule down-regulation of FLIP sensitizes prostate cancer cells to anoikis. (A) PPC-1 cells were seeded overnight in adherent conditions and then treated with increasing concentrations of 5809354 for 16 hours. After incubation, cells were harvested. Total cellular RNA was extracted and mRNA levels of the long isoform of FLIP (FLIPL), the short isoform of FLIP (FLIPS), or rRNA levels of 18S were detected by real-time RT-PCR. Data were normalized using the ΔΔCT method and expressed as the mean±SEM percent of […] expression relative to untreated controls. (B) PPC-1 cells were cultured and treated as in panel A. Total cellular protein was isolated and analyzed by SDS-PAGE immunoblotting using anti-FLIP and anti-Actin antibodies. (C) PPC-1 cells were seeded overnight in adherent conditions and then exposed to increasing concentrations of 5809354 in the presence or absence of Fas-activating antibody (CH-11, 100 ng/mL). Thirty hours after incubation, cell viability was determined using the MTS assay. Data represents the mean±SEM of percent of viable cells. (D) PPC-1 cells were seeded overnight in adherent or suspension conditions and then treated with increasing concentrations of 5809354 for 30 hours. After incubation, apoptosis was measured by flow cytometry to detect cell surface annexin V expression and PI. Data represents the mean±SEM of percent of viable cells. (E) Cells were harvested, fixed, stained with DAPI, and nuclear morphology analyzed by fluorescence microscopy. Arrowheads refer to fragmented nuclei indicative of apoptosis. […] Thirty hours after incubation, cells were harvested and equal volumes plated in a colony formation assay. One week later, cells were stained with methylene blue and the number of colonies counted. Data represents the mean ±SEM percent of colonies relative to untreated controls.
# Immunoblot analysis. Protein extracts were obtained by washing cells with phosphate-buffered saline (PBS) [pH 7.4] and suspending the cells in lysis buffer [10 mM Tris (pH 7.4), 150 mM NaCl, 0.1% Triton X-100, 0.5% sodium deoxycholate, and 5 mM EDTA] containing protease inhibitors (Complete tablets; Roche, Indianapolis, Ind.). Immunoblot assays were performed as described in Carter et al. (2005). […]
# [1] = PPC-1 cells, 30 μM, with or without CH-11, 24 hours, long isoform
Molecule,protection by Bcl-XL against apoptosis (PPC-1 cells),protection by CrmA against apoptosis induced by CH-11 plus compound (PPC-1 cells),"levels of FLIP protein (FLIP; PPC-1 cells, 30 μM, with or without CH-11, 24 hours, long isoform, hydrobromide)",levels of FLIP protein (FLIP; [1]),"FLIP protein expression (FLIP; Example 2, PPC-1 cells, increasing concentrations, 16 hours)","levels of FLIP protein (FLIP; non-responding cell lines DU145 and MDA-MB-468, 40 μM, 24 hours)"
"CCn1c(=N)n(CC(=O)c2cc(C(C)(C)C)c(O)c(C(C)(C)C)c2)c2ccccc21 [compound 5569100, 1-(3,5-di-tert-butyl-4-hydroxyphenyl)-2-(3-ethyl-2-imino-2,3-dihydro-1H-benzo[d]imidazol-1-yl)ethanone hydrobromide]",no protective effect,almost completely protected,decreased levels of FLIP protein; also recorded: reduced FLIP expression,,,
"CN[C@@H]1C[C@H]2O[C@@](C)([C@@H]1OC)n1c3ccccc3c3c4c(c5c6ccccc6n2c5c31)C(=O)NC4 [staurosporine, reference compound]",Bcl-XL but not Crm A protected,,,,,
"CC(=O)CC(=O)Nc1ccc(Cl)c(C(F)(F)F)c1 [compound 6094911, N-[4-chloro-3-(trifluoromethyl)phenyl]-3-oxobutanamide]",no protective effect,almost completely protected,,did not alter levels of FLIP protein,,
4-(4-chloro-2-methylphenoxy)-N-hydroxybutanamide [compound 5809354],no protective effect,almost completely protected,,decreased levels of FLIP protein,concentration-dependent decrease,levels of FLIP were decreased

# — US8008354B2, “Death receptor sensitizing compounds and methods of use therefor” (Burnham Institute for Medical Research, priority 2006, dated 2011)
